Results taken from patent publication US8975398B2, “NAMPT inhibitors” (AbbVie Inc., priority 2012, dated 2015).

Key:
[1] = molecular target: NAMPT (Homo sapiens, UniProt P43490); assay: Time-Resolved Fluorescence Resonance Energy Transfer (TR-FRET) Binding Assay of NAMPT with PRPP; conditions: 2 nM NAMPT, 2 nM probe, 200 uM PRPP and 2.5 mM ATP, equilibrated 16 hours
How it was run: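 Binding measured by TR-FRET after a 16-hour equilibration meant to permit enzymatic compound modification. Substrates present at 200 uM PRPP and 2.5 mM ATP, with 2 nM enzyme, 2 nM probe, 1 nM Tb-anti-His antibody and 2% DMSO final.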

[2] = molecular target: NAMPT (human, recombinant, C-terminally His-tagged) (Homo sapiens, UniProt P43490); assay: Time-Resolved Fluorescence Resonance Energy Transfer (TR-FRET) Binding Assay of NAMPT; conditions: 6.8 nM NAMPT, 200 nM probe, equilibrated 3 hours, absence of substrates
Chain of NAMPT (human, recombinant, C-terminally His-tagged) (P43490 whole entry): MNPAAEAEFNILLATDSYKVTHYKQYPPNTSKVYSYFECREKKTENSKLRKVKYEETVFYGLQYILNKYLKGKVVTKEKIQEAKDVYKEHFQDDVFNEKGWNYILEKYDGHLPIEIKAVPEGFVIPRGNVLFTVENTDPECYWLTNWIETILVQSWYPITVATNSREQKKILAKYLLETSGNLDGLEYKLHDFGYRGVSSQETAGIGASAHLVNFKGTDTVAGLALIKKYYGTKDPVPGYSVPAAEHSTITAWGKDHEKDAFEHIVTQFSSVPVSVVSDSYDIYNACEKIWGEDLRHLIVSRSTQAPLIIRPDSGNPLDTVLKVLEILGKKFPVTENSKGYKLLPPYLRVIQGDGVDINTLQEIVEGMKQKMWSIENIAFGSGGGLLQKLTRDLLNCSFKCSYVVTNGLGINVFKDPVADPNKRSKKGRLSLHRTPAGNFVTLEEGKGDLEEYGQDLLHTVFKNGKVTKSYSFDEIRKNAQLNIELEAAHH
How it was run: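 Probe displacement measured by TR-FRET (Ex 337 nm; 520/495 nm ratio) after 3 h room-temperature equilibration of compound with 6.8 nM His-tagged human NAMPT, 1 nM Tb-anti-His antibody and 200 nM Oregon Green 488 nicotinamide-site probe, pH 7.5 HEPES buffer, 2% DMSO. Control-normalized data fit four-parameter logistic for IC50.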

Chain of NAMPT (P43490 whole entry): as above

SMILES	IC50 [1]	IC50 [2]
Cc1ncccc1N1CC(C(=O)Nc2ccc(C3CCN(C(=O)c4cccc(F)c4)CC3)cc2)C1 [Example 152, N-{4-[1-(3-fluorobenzoyl)piperidin-4-yl]phenyl}-1-(2-methylpyridin-3-yl)azetidine-3-carboxamide]	101 nM	87.6 nM
CCC(C)(C)C(=O)N1CCC(c2ccc(NC(=O)C3CN(c4cccnn4)C3)cc2)CC1 [Example 325, N-{4-[1-(2,2-dimethylbutanoyl)piperidin-4-yl]phenyl}-1-(pyridazin-3-yl)azetidine-3-carboxamide]	1.08 nM	14 nM
CC(C)C(=O)N1CCC(Oc2ccc(NC(=O)C3CN(c4cccnc4)C3)cc2)CC1 [Example 46, N-(4-{[1-(2-methylpropanoyl)piperidin-4-yl]oxy}phenyl)-1-(pyridin-3-yl)azetidine-3-carboxamide]	1.02 nM	93.4 nM
Cc1ncccc1N1CC(C(=O)Nc2ccc(C3CCN(C(=O)c4ccsc4)CC3)cc2)C1 [Example 169, 1-(2-methylpyridin-3-yl)-N-{4-[1-(thiophen-3-ylcarbonyl)piperidin-4-yl]phenyl}azetidine-3-carboxamide]	67.9 nM	33.7 nM
CC(C)(C(=O)N1CCC(Oc2ccc(NC(=O)C3CN(c4cccnn4)C3)cc2)CC1)c1ccccc1 [Example 217, N-(4-{[1-(2-methyl-2-phenylpropanoyl)piperidin-4-yl]oxy}phenyl)-1-(pyridazin-3-yl)azetidine-3-carboxamide]	1.51 nM	43.9 nM
Cc1ncccc1N1CC(C(=O)Nc2ccc(C3CCN(C(=O)C4CC4C)CC3)cc2)C1 (centres unmarked) [Example 163, N-(4-{1-[(2-methylcyclopropyl)carbonyl]piperidin-4-yl}phenyl)-1-(2-methylpyridin-3-yl)azetidine-3-carboxamide]	83.1 nM	166 nM
CCOCCC(=O)N1CCC(Oc2ccc(NC(=O)C3CN(c4cccnc4)C3)cc2)CC1 [Example 39, N-(4-{[1-(3-ethoxypropanoyl)piperidin-4-yl]oxy}phenyl)-1-(pyridin-3-yl)azetidine-3-carboxamide]	1.05 nM	104 nM
O=C(Nc1ccc(C2CCN(C(=O)CCN3CCOCC3)CC2)cc1)C1CN(c2cccnc2)C1 [Example 124, N-(4-{1-[3-(morpholin-4-yl)propanoyl]piperidin-4-yl}phenyl)-1-(pyridin-3-yl)azetidine-3-carboxamide]	0.278 nM	123 nM
Cc1ncccc1N1CC(C(=O)Nc2ccc(C3CCN(C(=O)c4ccccc4)CC3)cc2)C1 [Example 149, N-[4-(1-benzoylpiperidin-4-yl)phenyl]-1-(2-methylpyridin-3-yl)azetidine-3-carboxamide]	54.3 nM	20.7 nM
O=C(Nc1ccc(OC2CCN(C(=O)c3ccc(F)cc3)CC2)cc1)C1CN(c2ccnnc2)C1 [Example 271, N-(4-{[1-(4-fluorobenzoyl)piperidin-4-yl]oxy}phenyl)-1-(pyridazin-4-yl)azetidine-3-carboxamide]	25.2 nM	78 nM
O=C1CC[C@H](C(=O)N2CCC(c3ccc(NC(=O)C4CN(c5cccnc5)C4)cc3)CC2)N1 [Example 106, N-{4-[1-(5-oxo-D-prolyl)piperidin-4-yl]phenyl}-1-(pyridin-3-yl)azetidine-3-carboxamide]	0.221 nM	160 nM
O=C(Nc1ccc(C2CCN(C(=O)c3ccsc3)CC2)cc1)C1CN(c2cccnc2)C1 [Example 109, 1-(pyridin-3-yl)-N-{4-[1-(thiophen-3-ylcarbonyl)piperidin-4-yl]phenyl}azetidine-3-carboxamide]	0.398 nM	5.03 nM
CCC(CC)CN1CCC(Oc2ccc(NC(=O)C3CN(c4cccnc4)C3)cc2)CC1 [Example 78, N-(4-{[1-(2-ethylbutyl)piperidin-4-yl]oxy}phenyl)-1-(pyridin-3-yl)azetidine-3-carboxamide]	0.632 nM	265 nM
